Source: PubChem BioAssay (NCI)
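Cells were grown in 96-well plates and exposed to each compound for 48 hours at five concentrations; endpoints were interpolated linearly between bracketing concentrations, or set to the highest concentration if not reached. GI50 = concentration required for 50% inhibition of growth. At the TGI there is no net growth.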

Legend:
Assay in all cases: NCI-60 cell line screen, 48 h
A549 NSCLC = tested on: A549 NSCLC
COLO 205 colon = tested on: COLO 205 colon
EKVX NSCLC = tested on: EKVX NSCLC
HS 578T breast = tested on: HS 578T breast
NCI-H23 lung = tested on: NCI-H23 lung
OVCAR-3 ovarian = tested on: OVCAR-3 ovarian
RXF 393 renal = tested on: RXF 393 renal
SNB-19 CNS = tested on: SNB-19 CNS
SNB-75 CNS = tested on: SNB-75 CNS
NCI/ADR-RES ovarian = tested on: NCI/ADR-RES ovarian

CC1SC(c2cccs2)N(NC(=O)C(O)c2ccccc2)C1=O (stereo not drawn)
GI50 (A549 NSCLC): > 100 µM
TGI (A549 NSCLC): > 100 µM
GI50 (COLO 205 colon): > 100 µM
TGI (COLO 205 colon): > 100 µM
GI50 (EKVX NSCLC): > 100 µM
TGI (EKVX NSCLC): > 100 µM
GI50 (HS 578T breast): > 100 µM
TGI (HS 578T breast): > 100 µM
GI50 (NCI-H23 lung): > 100 µM
TGI (NCI-H23 lung): > 100 µM
GI50 (OVCAR-3 ovarian): > 100 µM
TGI (OVCAR-3 ovarian): > 100 µM
GI50 (RXF 393 renal): > 100 µM
TGI (RXF 393 renal): > 100 µM
GI50 (SNB-19 CNS): > 100 µM
TGI (SNB-19 CNS): > 100 µM
GI50 (SNB-75 CNS): > 100 µM
TGI (SNB-75 CNS): > 100 µM

COC(=O)/C(C#N)=C1\N=NNN1CCCc1ccccc1
TGI (A549 NSCLC): > 100 µM
TGI (COLO 205 colon): > 100 µM
TGI (EKVX NSCLC): > 100 µM
TGI (NCI-H23 lung): > 100 µM
TGI (OVCAR-3 ovarian): > 100 µM
TGI (RXF 393 renal): > 100 µM
TGI (SNB-19 CNS): > 100 µM
TGI (SNB-75 CNS): > 100 µM

COc1ccccc1NC(=O)C1=C(C)NC(C)=C(C(=O)Nc2ccccc2OC)C1c1ccc(C(C)C)cc1
TGI (A549 NSCLC): > 100 µM
TGI (COLO 205 colon): > 100 µM
TGI (EKVX NSCLC): > 100 µM
TGI (NCI-H23 lung): > 100 µM
TGI (OVCAR-3 ovarian): > 100 µM
TGI (SNB-19 CNS): > 100 µM
TGI (SNB-75 CNS): > 100 µM

N#Cc1c2ccccc2c2nnc3cc(Cl)c(Cl)cc3n12
GI50 (A549 NSCLC): 47.7 µM
TGI (A549 NSCLC): > 100 µM
GI50 (EKVX NSCLC): 48.6 µM
TGI (EKVX NSCLC): > 100 µM
GI50 (NCI-H23 lung): 75.1 µM
TGI (NCI-H23 lung): > 100 µM
GI50 (NCI/ADR-RES ovarian): 31.6 µM
TGI (NCI/ADR-RES ovarian): 97.8 µM
GI50 (OVCAR-3 ovarian): 33.1 µM
TGI (OVCAR-3 ovarian): 95.9 µM
GI50 (RXF 393 renal): 30 µM
TGI (RXF 393 renal): > 100 µM
GI50 (SNB-75 CNS): 71.7 µM
TGI (SNB-75 CNS): > 100 µM

CCN(CCCl)CCNc1c2ccccc2nc2ccc(OC)cc12
TGI (A549 NSCLC): 7.11 µM
TGI (COLO 205 colon): 1.82 µM
TGI (EKVX NSCLC): 3.49 µM
TGI (NCI-H23 lung): 2.12 µM
TGI (NCI/ADR-RES ovarian): 12.8 µM
TGI (OVCAR-3 ovarian): 4.71 µM
TGI (RXF 393 renal): 1.97 µM
TGI (SNB-19 CNS): 8.62 µM
TGI (SNB-75 CNS): 3.27 µM

CC(CN(CP(=O)([O-])[O-])CP(=O)([O-])[O-])N(CP(=O)([O-])[O-])CP(=O)([O-])[O-].N[C@@H]1CCCC[C@@H]1N.[Pt+2] (stereo not drawn)
GI50 (A549 NSCLC): > 100 µM
TGI (A549 NSCLC): > 100 µM
GI50 (COLO 205 colon): > 100 µM
TGI (COLO 205 colon): > 100 µM
GI50 (EKVX NSCLC): > 100 µM
TGI (EKVX NSCLC): > 100 µM
GI50 (NCI-H23 lung): > 100 µM
TGI (NCI-H23 lung): > 100 µM
GI50 (OVCAR-3 ovarian): > 100 µM
TGI (OVCAR-3 ovarian): > 100 µM
GI50 (RXF 393 renal): > 100 µM
TGI (RXF 393 renal): > 100 µM
GI50 (SNB-19 CNS): > 100 µM
TGI (SNB-19 CNS): > 100 µM
GI50 (SNB-75 CNS): > 100 µM
TGI (SNB-75 CNS): > 100 µM

C/C=C/C1(NS(=O)(=O)c2ccc(C)cc2)CCC(C(C)(C)C)CC1 (stereo not drawn)
TGI (A549 NSCLC): > 100 µM
TGI (COLO 205 colon): 42.3 µM
TGI (EKVX NSCLC): 64.5 µM
TGI (NCI-H23 lung): 51.7 µM
TGI (OVCAR-3 ovarian): 34.9 µM
TGI (RXF 393 renal): 42.3 µM
TGI (SNB-19 CNS): > 100 µM
TGI (SNB-75 CNS): > 100 µM

CCCNc1nc(-c2ccc(OC)cc2)nc2ccccc12
GI50 (A549 NSCLC): 11.1 µM
TGI (A549 NSCLC): 49.6 µM
GI50 (COLO 205 colon): 19.9 µM
TGI (COLO 205 colon): > 100 µM
GI50 (HS 578T breast): 17.9 µM
TGI (HS 578T breast): 42.9 µM
GI50 (NCI-H23 lung): 18 µM
TGI (NCI-H23 lung): 45.9 µM
GI50 (NCI/ADR-RES ovarian): 11 µM
TGI (NCI/ADR-RES ovarian): 36.2 µM
GI50 (OVCAR-3 ovarian): 11.8 µM
TGI (OVCAR-3 ovarian): 26.9 µM
GI50 (RXF 393 renal): 15.4 µM
TGI (RXF 393 renal): 35.5 µM
GI50 (SNB-19 CNS): 34.8 µM
TGI (SNB-19 CNS): > 100 µM

CCCCOC(=O)N[C@H]1CCc2cc(OC)c(OC)c(OC)c2-c2ccc(SC)c(=O)cc21
TGI (A549 NSCLC): 98.9 µM
TGI (COLO 205 colon): < 0.01 µM
TGI (EKVX NSCLC): > 100 µM
TGI (NCI-H23 lung): 8.09 µM
TGI (OVCAR-3 ovarian): < 0.0329 µM
TGI (RXF 393 renal): 2.07 µM
TGI (SNB-19 CNS): 73 µM
TGI (SNB-75 CNS): 2.99 µM

COc1ccc(/C=C(/C(=O)N2CCNCC2)c2cc(OC)c(OC)c(OC)c2)cc1O
GI50 (A549 NSCLC): 6.63 µM
TGI (A549 NSCLC): > 100 µM
GI50 (COLO 205 colon): 3.24 µM
TGI (COLO 205 colon): 14 µM
GI50 (EKVX NSCLC): 6.43 µM
TGI (EKVX NSCLC): > 100 µM
GI50 (HS 578T breast): 2.42 µM
TGI (HS 578T breast): 30 µM
GI50 (NCI-H23 lung): 5.16 µM
TGI (NCI-H23 lung): > 100 µM
GI50 (NCI/ADR-RES ovarian): > 100 µM
TGI (NCI/ADR-RES ovarian): > 100 µM
GI50 (OVCAR-3 ovarian): 2.45 µM
TGI (OVCAR-3 ovarian): 7.1 µM
GI50 (RXF 393 renal): 2.95 µM
TGI (RXF 393 renal): > 100 µM
GI50 (SNB-19 CNS): 3.91 µM
TGI (SNB-19 CNS): > 100 µM

N#CC(C#N)=C1NC(=O)C(c2ccccc2)C(=O)N1 (stereo not drawn)
TGI (A549 NSCLC): > 100 µM
TGI (COLO 205 colon): > 100 µM
TGI (EKVX NSCLC): > 100 µM
TGI (NCI-H23 lung): > 100 µM
TGI (OVCAR-3 ovarian): > 100 µM
TGI (RXF 393 renal): > 100 µM
TGI (SNB-19 CNS): > 100 µM
TGI (SNB-75 CNS): > 100 µM

Cc1ccccc1NC(=O)c1[nH]c(=S)nc(N)c1-c1ccccc1C
TGI (A549 NSCLC): > 100 µM
TGI (COLO 205 colon): > 100 µM
TGI (EKVX NSCLC): > 100 µM
TGI (NCI-H23 lung): > 100 µM
TGI (OVCAR-3 ovarian): > 100 µM
TGI (RXF 393 renal): > 100 µM
TGI (SNB-19 CNS): > 100 µM
TGI (SNB-75 CNS): 76.1 µM

COC(=O)C1Cc2c([nH]c3ccccc23)C=N1 (stereo not drawn)
TGI (A549 NSCLC): > 100 µM
TGI (COLO 205 colon): > 100 µM
TGI (EKVX NSCLC): > 100 µM
TGI (NCI-H23 lung): > 100 µM
TGI (OVCAR-3 ovarian): > 100 µM
TGI (RXF 393 renal): > 100 µM
TGI (SNB-19 CNS): > 100 µM
TGI (SNB-75 CNS): > 100 µM

NC(=O)NC(=O)CI
GI50 (A549 NSCLC): 18.8 µM
TGI (A549 NSCLC): 37.4 µM
GI50 (COLO 205 colon): 1.91 µM
TGI (COLO 205 colon): 3.73 µM
GI50 (HS 578T breast): 15.8 µM
TGI (HS 578T breast): 47.8 µM
GI50 (NCI-H23 lung): 5.75 µM
TGI (NCI-H23 lung): 21 µM
GI50 (NCI/ADR-RES ovarian): 18.7 µM
TGI (NCI/ADR-RES ovarian): 41.9 µM
GI50 (OVCAR-3 ovarian): 1.92 µM
TGI (OVCAR-3 ovarian): 3.45 µM
GI50 (RXF 393 renal): 5.97 µM
TGI (RXF 393 renal): 18.3 µM
GI50 (SNB-19 CNS): 34 µM
TGI (SNB-19 CNS): 97.7 µM
GI50 (SNB-75 CNS): 15.2 µM
TGI (SNB-75 CNS): 29.4 µM

Cc1cccc(C)c1NC(=O)C(=O)C1C(=O)N(c2ccccc2)N=C1N (stereo not drawn)
TGI (A549 NSCLC): > 100 µM
TGI (COLO 205 colon): > 100 µM
TGI (EKVX NSCLC): > 100 µM
TGI (NCI-H23 lung): > 100 µM
TGI (OVCAR-3 ovarian): > 100 µM
TGI (RXF 393 renal): > 100 µM
TGI (SNB-19 CNS): > 100 µM
TGI (SNB-75 CNS): > 100 µM

NS(=O)(=O)c1ccc(-n2nc(-c3ccc(Cl)cc3)cc2C2=CC(=O)C=CC2=O)cc1
GI50 (A549 NSCLC): 30 µM
TGI (A549 NSCLC): > 100 µM
GI50 (EKVX NSCLC): 28.4 µM
TGI (EKVX NSCLC): 91.1 µM
GI50 (HS 578T breast): 23.8 µM
TGI (HS 578T breast): 72.6 µM
GI50 (NCI-H23 lung): 18 µM
TGI (NCI-H23 lung): 42.1 µM
GI50 (NCI/ADR-RES ovarian): 27.2 µM
TGI (NCI/ADR-RES ovarian): 63.5 µM
GI50 (OVCAR-3 ovarian): 22.7 µM
TGI (OVCAR-3 ovarian): 42.9 µM
GI50 (RXF 393 renal): 21.9 µM
TGI (RXF 393 renal): 46.7 µM

COc1nc2c(nc(N)n2C2OC(CO)C(O)C(O)C2O)c(=O)n1C (stereo not drawn)
TGI (A549 NSCLC): > 100 µM
TGI (COLO 205 colon): > 100 µM
TGI (EKVX NSCLC): > 100 µM
TGI (NCI-H23 lung): > 100 µM
TGI (OVCAR-3 ovarian): > 100 µM
TGI (RXF 393 renal): > 100 µM
TGI (SNB-19 CNS): > 100 µM
TGI (SNB-75 CNS): > 100 µM

CC(C)(C)c1ccccc1NS(=O)(=O)c1ccccc1
TGI (A549 NSCLC): > 100 µM
TGI (EKVX NSCLC): > 100 µM
TGI (NCI-H23 lung): > 100 µM
TGI (OVCAR-3 ovarian): > 100 µM
TGI (RXF 393 renal): > 100 µM
TGI (SNB-75 CNS): > 100 µM

O=C1c2cccc3cccc(c23)C(=O)N1CCCCOc1ccc(-c2nc3ccc(N4CCOCC4)cc3[nH]2)cc1
GI50 (A549 NSCLC): 3.77 µM
TGI (A549 NSCLC): > 84.4 µM
GI50 (COLO 205 colon): 3.78 µM
TGI (COLO 205 colon): 13.7 µM
GI50 (EKVX NSCLC): 17.6 µM
TGI (EKVX NSCLC): > 57.9 µM
GI50 (HS 578T breast): 2.16 µM
TGI (HS 578T breast): 14.7 µM
GI50 (NCI-H23 lung): 6.7 µM
TGI (NCI-H23 lung): 23.5 µM
GI50 (NCI/ADR-RES ovarian): 10.3 µM
TGI (NCI/ADR-RES ovarian): > 83.9 µM
GI50 (OVCAR-3 ovarian): 5.05 µM
TGI (OVCAR-3 ovarian): 11.2 µM
GI50 (RXF 393 renal): 0.547 µM
TGI (RXF 393 renal): 3 µM
GI50 (SNB-19 CNS): 7.91 µM
TGI (SNB-19 CNS): > 48.5 µM
